Test results reported in article PMC11952222, “Development and comparison of single FLT3-inhibitors to dual FLT3/TAF1-inhibitors as an anti-leukemic approach” (PLOS One, 2025).
“And” between values parts separate entries of the source, which are not always exact repeats. Equal entries are not always repeated. Where two headings read alike, the source gives them in different places.

Tests used:
[1] = target: T1, TAF1(2) (Homo sapiens, UniProt P21675); experiment: Eurofins/DiscoverX cell free bromodomain assay, percent control; type: binding; details: for per_control_1000nM TAF1(2): 1000 nM compound; for per_control_10000nM TAF1(2): 10000 nM compound
T1 construct: with specific focus on TAF1(2) bromodomain assessed by the KdELECT assay; purchased Eurofins/DiscoverX
T1 sequence (P21675 1519-1628 limits assumed): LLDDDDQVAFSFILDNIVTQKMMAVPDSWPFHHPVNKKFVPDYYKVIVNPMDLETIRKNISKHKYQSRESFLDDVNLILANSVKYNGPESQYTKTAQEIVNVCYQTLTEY
Protocol: (§1) The 3i-compounds underwent activity testing against a panel of 32 bromodomains using the Eurofins/DiscoverX bromoMAX assay, with specific focus on TAF1(2) bromodomain assessed by the KdELECT assay. In a similar manner, kinase activity was evaluated using a panel of 97 kinase proteins using the Eurofins/DiscoverX scanELECT and KdELECT assays, with specific focus on FLT3 protein. An 11-point 3-fold serial dilution of each test compound was prepared in 100% DMSO at 100x final test concentration and subsequently diluted to final concentration (DMSO 1%). […] Percent control was calculated using the following formula: ((test compound signal – positive control signal)/ (negative control signal – positive control signal)) × 100.

[2] = test system: HDQP1 cells; experiment: Cell viability, CellTiter Glo, HDQP1; type: cell-based
Protocol: (§2) Drug sensitivity and resistance testing in MOLM13, DU4475, HDQP1, and IGROV1 cells was conducted at the Finnish Institute for Molecular Medicine (FIMM), University of Helsinki. In brief, the effects of compounds on cell viability and cell death were quantified with Cell-Titer Glo (Promega) and CellTox Green (Promega), respectively. Compounds or vehicle control were included in cell culture medium at described concentrations for 72h using an automated liquid dispenser in 384-well format. For KASUMI-1 experiments, cells were grown in 96-well plates and similarly incubated with compounds at indicated concentrations for 72h in RPMI + 10% FCS + Gentamicin, followed by lysis and quantification of cell viability with Cell-Titer Glo (Promega).
(§3) Raw values from viability and toxicity assays were normalized to DMSO and plotted to heat maps in R using pheatmap (RRID:SCR_016418). Dose-response curves were generated using the drc package in R [40]. In brief, nonlinear modelling was performed to calculate IC50 values for each compound where possible and resulting curves from drc and experimental values were plotted using ggplot2 (RRID:SCR_014601).

[3] = test system: DU4475 cells; experiment: Cell toxicity, CellTox Green, DU4475; type: cell-based; details: CellTox Green relative to DMSO
Protocol: as §2, §3

[4] = target: T2, c-KIT (Homo sapiens, UniProt P10721); experiment: Eurofins/DiscoverX kinase assay, c-KIT IC50; type: binding
T2 construct: purchased Eurofins/DiscoverX
T2 sequence (P10721 26-976): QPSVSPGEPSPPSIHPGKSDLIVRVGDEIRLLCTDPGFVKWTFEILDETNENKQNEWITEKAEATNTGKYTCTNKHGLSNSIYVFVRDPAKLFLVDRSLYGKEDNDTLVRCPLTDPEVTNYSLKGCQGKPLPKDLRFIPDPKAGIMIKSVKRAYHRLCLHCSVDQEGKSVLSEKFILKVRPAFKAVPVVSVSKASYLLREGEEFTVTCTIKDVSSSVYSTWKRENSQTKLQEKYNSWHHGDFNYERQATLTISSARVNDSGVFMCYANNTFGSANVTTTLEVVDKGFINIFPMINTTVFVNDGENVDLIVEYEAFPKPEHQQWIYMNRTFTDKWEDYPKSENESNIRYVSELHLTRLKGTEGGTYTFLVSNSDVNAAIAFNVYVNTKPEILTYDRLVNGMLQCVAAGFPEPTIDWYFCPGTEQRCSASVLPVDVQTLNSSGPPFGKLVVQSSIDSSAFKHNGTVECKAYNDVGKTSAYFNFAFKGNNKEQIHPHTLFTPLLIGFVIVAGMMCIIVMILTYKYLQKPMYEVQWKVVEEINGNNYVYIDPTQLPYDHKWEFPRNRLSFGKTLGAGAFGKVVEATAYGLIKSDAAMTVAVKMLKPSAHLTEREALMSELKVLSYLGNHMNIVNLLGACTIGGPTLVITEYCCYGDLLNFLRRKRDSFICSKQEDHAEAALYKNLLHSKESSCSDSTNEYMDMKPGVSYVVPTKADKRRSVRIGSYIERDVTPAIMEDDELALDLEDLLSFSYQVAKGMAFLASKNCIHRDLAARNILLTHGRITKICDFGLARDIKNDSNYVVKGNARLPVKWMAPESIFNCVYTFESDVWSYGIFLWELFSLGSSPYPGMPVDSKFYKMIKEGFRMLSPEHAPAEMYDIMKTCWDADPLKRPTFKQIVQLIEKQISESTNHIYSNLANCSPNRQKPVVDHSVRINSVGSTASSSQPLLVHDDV
Protocol: as §1

[5] = target: T3, PDGFRB (Homo sapiens, UniProt P09619); experiment: Eurofins/DiscoverX kinase assay, PDGFRB IC50; type: binding
T3 construct: purchased Eurofins/DiscoverX
T3 sequence (P09619 33-1106): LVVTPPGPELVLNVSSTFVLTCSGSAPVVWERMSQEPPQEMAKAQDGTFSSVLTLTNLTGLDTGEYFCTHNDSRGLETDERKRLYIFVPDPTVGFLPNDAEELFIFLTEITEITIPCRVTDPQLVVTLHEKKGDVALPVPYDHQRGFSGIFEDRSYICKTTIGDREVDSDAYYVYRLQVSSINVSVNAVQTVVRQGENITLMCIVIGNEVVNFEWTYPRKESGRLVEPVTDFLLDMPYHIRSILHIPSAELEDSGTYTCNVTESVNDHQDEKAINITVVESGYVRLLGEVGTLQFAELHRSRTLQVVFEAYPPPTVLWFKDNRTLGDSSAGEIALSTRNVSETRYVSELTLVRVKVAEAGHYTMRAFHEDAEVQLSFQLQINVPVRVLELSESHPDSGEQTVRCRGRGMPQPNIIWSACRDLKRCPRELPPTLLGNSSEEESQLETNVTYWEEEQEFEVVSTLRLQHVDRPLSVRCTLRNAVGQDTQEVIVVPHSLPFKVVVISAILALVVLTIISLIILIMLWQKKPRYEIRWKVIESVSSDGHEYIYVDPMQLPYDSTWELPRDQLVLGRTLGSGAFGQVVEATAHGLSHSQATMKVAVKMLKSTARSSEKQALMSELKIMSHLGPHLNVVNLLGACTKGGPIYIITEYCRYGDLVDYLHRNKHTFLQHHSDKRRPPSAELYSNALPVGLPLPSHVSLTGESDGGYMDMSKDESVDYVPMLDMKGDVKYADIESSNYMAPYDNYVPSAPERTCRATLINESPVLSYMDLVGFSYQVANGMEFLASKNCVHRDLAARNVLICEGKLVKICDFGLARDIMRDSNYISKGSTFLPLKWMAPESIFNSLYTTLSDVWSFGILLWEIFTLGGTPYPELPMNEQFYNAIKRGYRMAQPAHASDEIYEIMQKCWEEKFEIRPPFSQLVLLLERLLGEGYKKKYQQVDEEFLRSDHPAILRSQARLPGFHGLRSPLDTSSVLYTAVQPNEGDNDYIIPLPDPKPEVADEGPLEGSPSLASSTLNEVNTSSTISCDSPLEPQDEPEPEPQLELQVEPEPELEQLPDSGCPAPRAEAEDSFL
Protocol: as §1

[6] = test system: KASUMI-1 cells; experiment: Cell viability, CellTiter Glo, KASUMI-1; type: cell-based; details: compared to dual FLT3/TAF1(2) compounds 3i-1103, 3i-1246, 3i-1248
Protocol: as §2, §3

[7] = 72h, mean of n = 3 independent experiments, read-out: HDQP1 IC50 (CellTiter Glo)
[8] = 72h, one independent experiment per value, read-out: HDQP1 IC50, individual dose-response curve (CellTiter Glo)
[9] = Homo sapiens, HDQ-P1, 72 h, one independent experiment per value, read-out: HDQP1 IC50, individual dose-response curve (CellTiter Glo)

Row | Structure (SMILES) | per_control_1000nM TAF1(2) [1] [percent control] | per_control_10000nM TAF1(2) [1] [percent control] | IC50 [2, 7] [µM] | IC50 [2, 8] | IC50 ([2]; Homo sapiens, HDQ-P1, 72 h, mean of n = 3 independent experiments, read-out: HDQP1 IC50 (CellTiter Glo)) [µM] | IC50 [2, 9] [µM] | CTX normalized_to_DMSO ([3]; DU4475, exp 1, 0.3 µM) | CTX normalized_to_DMSO ([3]; DU4475, exp 1, 1 µM) | CTX normalized_to_DMSO ([3]; DU4475, exp 1, 3 µM) | CTX normalized_to_DMSO ([3]; DU4475, exp 1, 10 µM) | CTX normalized_to_DMSO ([3]; DU4475, exp 1, 30 µM) | IC50 ([2]; 72h, mean of n = 3 independent experiments, listed as 1248, read-out: HDQP1 IC50 (CellTiter Glo)) [µM] | IC50 [4] [µM] | IC50 [5] [µM] | anti-proliferative activity in KASUMI-1 cells [6]
1 | Cc1cc(-c2cc(NC(=O)c3ccc(C(C)(C)C)cc3)[nH]n2)ccn1 [Compound 3i-1246, 4-(tert-butyl)-N-(3-(2-methylpyridin-4-yl)-1H-pyrazol-5-yl)benzamide] | 4.1 | 3.6 | > 10 | 10.5 µM and 19.5 µM | 13.4 | 10.1 |  |  |  |  |  |  |  |  | 
2 | COc1ccc(-c2cc(NC(=O)c3ccc(C(C)(C)C)cc3)[nH]n2)cc1 [Compound 3i-1103] | 21 | 2.6 |  |  |  |  | 1.007 | 0.9954 | 0.9628 | 0.9392 | 0.7319 |  |  |  | 
3 | Cn1cc(-c2cc(NC(=O)c3ccc(C(C)(C)C)cc3)n[nH]2)ccc1=O [Compound 3i-1248, 4-(tert-butyl)-N-(5-(1-methyl-6-oxo-1,6-dihydropyridin-3-yl)-1H-pyrazol-3-yl)benzamide] | 0.3 | 0.05 | > 10 | 21.1 µM and 22.1 µM |  | 18.8 |  |  |  |  |  | 20.7 |  |  | 
4 | CC(C)(C)c1ccc(C(=O)Nc2cc(-c3ccccc3)n[nH]2)cc1 [Compound 3i-1247, 4-(tert-butyl)-N-(3-phenyl-1H-pyrazol-5-yl)benzamide] | 97 | 78 |  | > 30 µM |  |  |  |  |  |  |  |  | 0.0085 | 0.0034 | superior anti-proliferative activity
